For 2 compounds, Residual activity results are on record in article PMC9030254, “Target Hopping from Protein Kinases to PXR: Identification of Small-Molecule Protein Kinase Inhibitors as Selective Modulators of Pregnane X Receptor from TüKIC Library” (Cells, 2022).

Common to all, as to experiment: Kinase profiling
Holding throughout (assay type): biochemical

Assay [1] has as its target T1, EIF2AK3 (Homo sapiens, UniProt Q9NZJ5).
T1 construct: purchased ProQinase (Freiburg, Germany)
T1 sequence (Q9NZJ5 30-1116): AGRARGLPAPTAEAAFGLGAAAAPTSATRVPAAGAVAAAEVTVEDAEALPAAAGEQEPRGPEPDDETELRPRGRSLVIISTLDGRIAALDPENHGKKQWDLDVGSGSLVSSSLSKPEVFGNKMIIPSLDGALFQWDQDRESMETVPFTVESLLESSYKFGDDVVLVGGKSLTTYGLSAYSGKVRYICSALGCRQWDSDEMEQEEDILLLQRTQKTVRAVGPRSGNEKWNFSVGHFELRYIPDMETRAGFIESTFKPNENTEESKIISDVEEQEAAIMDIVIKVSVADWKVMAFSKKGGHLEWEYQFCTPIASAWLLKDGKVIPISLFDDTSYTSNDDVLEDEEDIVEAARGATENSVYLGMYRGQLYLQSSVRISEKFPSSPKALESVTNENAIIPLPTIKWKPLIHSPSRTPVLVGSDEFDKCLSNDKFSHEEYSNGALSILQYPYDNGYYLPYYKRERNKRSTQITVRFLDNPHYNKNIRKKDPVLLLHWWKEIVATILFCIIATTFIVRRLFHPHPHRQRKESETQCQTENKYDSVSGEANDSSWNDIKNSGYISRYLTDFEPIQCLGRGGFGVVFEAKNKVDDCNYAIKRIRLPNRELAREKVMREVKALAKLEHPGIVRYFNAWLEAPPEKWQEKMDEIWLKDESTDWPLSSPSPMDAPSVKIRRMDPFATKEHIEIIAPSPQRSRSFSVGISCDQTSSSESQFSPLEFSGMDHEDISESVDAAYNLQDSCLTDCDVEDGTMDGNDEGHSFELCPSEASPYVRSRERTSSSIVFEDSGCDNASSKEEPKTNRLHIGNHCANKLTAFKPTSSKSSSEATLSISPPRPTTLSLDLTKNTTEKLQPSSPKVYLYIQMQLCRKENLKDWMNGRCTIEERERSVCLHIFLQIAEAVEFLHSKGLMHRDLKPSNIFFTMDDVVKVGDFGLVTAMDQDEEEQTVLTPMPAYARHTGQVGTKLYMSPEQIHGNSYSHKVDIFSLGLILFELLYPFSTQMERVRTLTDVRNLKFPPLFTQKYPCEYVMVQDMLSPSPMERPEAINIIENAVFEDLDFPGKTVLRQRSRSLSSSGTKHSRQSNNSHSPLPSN
The procedure: (§1) The analysis was performed by ProQinase (Freiburg, Germany).

Assay [2] deals with T2, PKMYT1 (Homo sapiens, UniProt Q99640).
T2 construct: purchased ProQinase (Freiburg, Germany)
T2 sequence (Q99640 1-499): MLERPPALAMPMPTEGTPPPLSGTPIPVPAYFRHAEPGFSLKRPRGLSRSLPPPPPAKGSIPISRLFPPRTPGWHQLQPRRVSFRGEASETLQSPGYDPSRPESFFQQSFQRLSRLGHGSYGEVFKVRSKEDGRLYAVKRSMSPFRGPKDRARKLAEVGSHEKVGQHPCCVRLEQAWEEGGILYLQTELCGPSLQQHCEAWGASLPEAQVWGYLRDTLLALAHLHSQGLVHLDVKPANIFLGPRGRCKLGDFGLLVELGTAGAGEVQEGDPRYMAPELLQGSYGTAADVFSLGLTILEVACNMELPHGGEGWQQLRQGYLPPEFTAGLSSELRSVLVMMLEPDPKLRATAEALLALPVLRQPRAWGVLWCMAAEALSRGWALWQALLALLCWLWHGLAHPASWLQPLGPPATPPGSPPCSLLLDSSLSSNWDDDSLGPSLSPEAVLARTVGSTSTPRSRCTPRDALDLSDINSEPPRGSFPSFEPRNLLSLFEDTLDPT
The procedure: as §1

Assay [3] addresses T3, PLK3 (Homo sapiens, UniProt Q9H4B4).
T3 construct: purchased ProQinase (Freiburg, Germany)
The procedure:
as §1

Assay [4] concerns the target T4, TXK (Homo sapiens, UniProt P42681).
T4 construct: purchased ProQinase (Freiburg, Germany)
T4 sequence (P42681 1-527): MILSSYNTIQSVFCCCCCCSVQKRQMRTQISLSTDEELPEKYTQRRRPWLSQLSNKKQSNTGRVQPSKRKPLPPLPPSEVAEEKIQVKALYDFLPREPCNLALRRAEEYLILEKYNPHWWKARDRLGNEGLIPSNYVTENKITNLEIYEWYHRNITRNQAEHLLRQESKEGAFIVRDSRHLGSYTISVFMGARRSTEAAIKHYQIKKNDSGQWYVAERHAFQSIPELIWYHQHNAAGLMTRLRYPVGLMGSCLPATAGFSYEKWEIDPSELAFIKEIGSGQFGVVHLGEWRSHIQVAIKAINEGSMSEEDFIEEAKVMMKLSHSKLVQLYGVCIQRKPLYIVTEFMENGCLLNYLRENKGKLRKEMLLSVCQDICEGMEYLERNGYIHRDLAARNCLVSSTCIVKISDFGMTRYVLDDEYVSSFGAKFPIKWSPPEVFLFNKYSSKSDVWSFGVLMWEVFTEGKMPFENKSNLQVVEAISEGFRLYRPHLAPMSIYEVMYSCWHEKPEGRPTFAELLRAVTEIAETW
As for the experimental part: as §1

T3 sequence (Q9H4B4 whole entry): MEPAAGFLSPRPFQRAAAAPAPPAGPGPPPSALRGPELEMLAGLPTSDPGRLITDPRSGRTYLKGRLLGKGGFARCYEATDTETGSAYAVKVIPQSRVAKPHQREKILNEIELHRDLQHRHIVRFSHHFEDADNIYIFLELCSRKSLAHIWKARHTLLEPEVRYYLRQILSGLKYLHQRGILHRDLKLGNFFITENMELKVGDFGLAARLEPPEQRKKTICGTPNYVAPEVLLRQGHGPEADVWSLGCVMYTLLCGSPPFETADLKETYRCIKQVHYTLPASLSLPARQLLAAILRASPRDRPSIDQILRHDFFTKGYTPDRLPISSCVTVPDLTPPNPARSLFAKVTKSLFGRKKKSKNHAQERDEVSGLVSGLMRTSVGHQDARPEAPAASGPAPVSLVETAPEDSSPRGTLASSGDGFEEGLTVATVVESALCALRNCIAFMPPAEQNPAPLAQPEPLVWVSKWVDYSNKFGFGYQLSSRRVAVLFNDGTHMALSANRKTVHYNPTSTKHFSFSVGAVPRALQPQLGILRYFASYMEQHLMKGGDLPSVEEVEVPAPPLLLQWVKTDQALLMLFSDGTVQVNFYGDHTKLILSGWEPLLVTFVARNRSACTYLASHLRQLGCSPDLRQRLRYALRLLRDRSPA

For the compound `O=C(Cc1ccccc1)Nc1ccc(F)c(Nc2ccc3c(c2)CCCCC3=O)c1` [Compound 100], the Residual activity in assay [1] (1.0E-05 M) is listed as 102 % of control; in assay [1] (1.0E-06 M), 94 % of control; in assay [2] (1.0E-05 M), 93 % of control; in assay [2] (1.0E-06 M) it was 102 % of control; in assay [3] (1.0E-05 M) it was 114 % of control; in assay [3] (1.0E-06 M), 115 % of control. Moreover, the Residual activity in assay [4] (1.0E-05 M) is reported as 90 % of control; in assay [4] (1.0E-06 M) it was 100 % of control.
In the case of `O=C(Nc1ccc(F)c(Nc2ccc3c(c2)CCCCC3=O)c1)c1cccc(F)c1` [Compound 109], the Residual activity in assay [1] (1.0E-05 M) is reported as 92 % of control; in assay [1] (1.0E-06 M) it was 93 % of control; in assay [2] (1.0E-05 M), 95 % of control; in assay [2] (1.0E-06 M) it was 98 % of control; in assay [3] (1.0E-05 M), 104 % of control; in assay [3] (1.0E-06 M), 104 % of control. Also, the Residual activity in assay [4] (1.0E-05 M) and in assay [4] (1.0E-06 M) was 97 % of control in each case.
